Measured values: patent US20260226071A1, “2, 4-DIANILINOPYRIMIDINE-BASED AURORA-A KINASE SELECTIVE DEGRADATION INDUCING COMPOUNDS” (UPPTHERA, INC., priority 2023, published 2026)

Columns and labels:
[1] = target: T1, Aurora kinase A (AURKA) (Homo sapiens, UniProt O14965); experiment: Luciferase assay for AURKA in HeLa LgBit (AURKA-HiBit KI) cell line; type: cell-based; settings: HeLa LgBit (AURKA-HiBit KI) cells, measured after 12 hours
T1 construct: endogenous in cells; host or cells: HeLa LgBit (AURKA-HiBit KI), CRISPR/Cas9 knock-in at the endogenous AURKA locus
T1 sequence (O14965 1-403): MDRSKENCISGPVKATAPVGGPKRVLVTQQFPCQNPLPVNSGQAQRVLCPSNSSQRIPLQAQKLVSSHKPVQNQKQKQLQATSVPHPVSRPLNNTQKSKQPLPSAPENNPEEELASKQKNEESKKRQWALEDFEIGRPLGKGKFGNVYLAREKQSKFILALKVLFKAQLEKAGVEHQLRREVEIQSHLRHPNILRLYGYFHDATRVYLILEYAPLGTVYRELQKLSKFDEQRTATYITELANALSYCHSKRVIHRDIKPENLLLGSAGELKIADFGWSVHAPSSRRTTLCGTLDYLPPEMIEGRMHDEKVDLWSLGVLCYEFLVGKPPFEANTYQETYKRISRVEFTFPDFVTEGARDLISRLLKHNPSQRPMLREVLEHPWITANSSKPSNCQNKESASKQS
In short: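 Test compounds (10 nM or 100 nM) added to AURKA-HiBit knock-in HeLa LgBit cells that had been pre-loaded with Endurazine for 2 h following an 18 h culture at 3×10^4 cells. Endogenous AURKA-HiBit level followed by luminescence (470-480 nm), measured after 12 h.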

[2] = test system: NCI-H446 cell line; experiment: Cell viability assay for NCI-H446 cell line; type: cell-based; settings: Homo sapiens, NCI-H446, 120 h; H446 cells, 5 days culture, EZ-Cytox; read-out: IC50 value (Level)
In short: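 Viability was measured by absorbance at 450 nm after 4 h with EZ-Cytox, following 5-day exposure of NCI-H446 cells (RPMI 1640, 10% FBS, 37 °C, 5% CO2) to 3-fold serial dilutions from 1000 nM down to 0.15 nM, added 24 h post-seeding.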

Row | luminescence value (Level) ([1]; 10 nM compound) | luminescence value (Level) ([1]; 100 nM compound) | SMILES | IC50 [2] [nM]
1 | A (A is <0.3) | A (A is <0.2) | O=C1CCC(c2ccc(N3CCC(O)(CCC4CCN(NC(=O)c5ccc(Nc6ncc(F)c(Nc7ccc(C(=O)Nc8ccccc8Cl)cc7)n6)cc5)CC4)CC3)c(F)c2)C(=O)N1 (stereo not drawn) [Compound 96, N-(2-chlorophenyl)-4-((2-((4-((4-(2-(1-(4-(2,6-dioxopiperidin-3-yl)-2-fluorophenyl)-4-hydroxypiperidin-4-yl)ethyl)piperidin-1-yl)carbamoyl)phenyl)amino)-5-fluoropyrimidin-4-yl)amino)benzamide] | < 50
2 | A (A is <0.3) | A (A is <0.2) | O=C1CCC(Nc2ccc(N3CCN(CC[C@H]4CC[C@H](NC(=O)c5ccc(Nc6ncc(F)c(Nc7ccc(C(=O)Nc8ccccc8Cl)cc7)n6)cc5)CC4)CC3)c(F)c2)C(=O)N1 (stereo partly drawn) [Compound 86, N-(2-chlorophenyl)-4-((2-((4-(((1r,4r)-4-(2-(4-(4-((2,6-dioxopiperidin-3-yl)amino)-2-fluorophenyl)piperazin-1-yl)ethyl)cyclohexyl)carbamoyl)phenyl)amino)-5-fluoropyrimidin-4-yl)amino)benzamide] | 50 to 100
3 | B (B is 0.3 to 0.5) | A (A is <0.2) | O=C1CCC(Nc2cc(F)c(N3CCN(CCC4CCN(NC(=O)c5ccc(Nc6ncc(F)c(Nc7ccc(NC(=O)c8ccccc8F)cc7)n6)cc5F)CC4)CC3)cc2F)C(=O)N1 (stereo not drawn) [Compound 109, N-(4-(2-(4-(4-((2,6-dioxopiperidin-3-yl)amino)-2,5-difluorophenyl)piperazin-1-yl)ethyl)piperidin-1-yl)-2-fluoro-4-((5-fluoro-4-((4-(2-fluorobenzamido)phenyl)amino)pyrimidin-2-yl)amino)benzamide] | 50 to 100
4 | B (B is 0.3 to 0.5) | A (A is <0.2) | O=C1CCC(c2ccc(N3CCN(CCC4CCN(NC(=O)c5ccc(Nc6ncc(F)c(Nc7ccc(C(=O)Nc8ccccc8)cc7)n6)cc5)CC4)CC3)cc2)C(=O)N1 (stereo not drawn) [Compound 103, 4-[[2-[4-[[4-[2-[4-[4-(2,6-dioxo-3-piperidyl)phenyl]piperazin-1-yl]ethyl]-1-piperidyl]carbamoyl]anilino]-5-fluoro-pyrimidin-4-yl]amino]-N-phenyl-benzamide] | 50 to 100
5 | A (A is <0.3) | A (A is <0.2) | O=C1CC[C@H](Nc2ccc(N3CCN(CCC4CCN(NC(=O)c5ccc(Nc6ncc(F)c(Nc7ccc(C(=O)Nc8ccccc8Cl)cc7)n6)cc5)CC4)CC3)c(F)c2)C(=O)N1 [Compound 94, (S)—N-(2-chlorophenyl)-4-((2-((4-((4-(2-(4-(4-((2,6-dioxopiperidin-3-yl)amino)-2-fluorophenyl)piperazin-1-yl)ethyl)piperidin-1-yl)carbamoyl)phenyl)amino)-5-fluoropyrimidin-4-yl)amino)benzamide] | < 50

More lines, now with the values behind:

Row | SMILES | luminescence value (Level) ([1]; 10 nM compound) | luminescence value (Level) ([1]; 100 nM compound) | IC50 [2] [nM]
6 | O=C1CCC(Nc2ccc(N3CCN(C[C@H]4CC[C@H](NC(=O)c5ccc(Nc6ncc(F)c(Nc7ccc(C(=O)Nc8ccccc8Cl)cc7)n6)cc5)CC4)CC3)cc2)C(=O)N1 (stereo partly drawn) [Compound 26, N-(2-chlorophenyl)-4-((2-((4-(((1r,4r)-4-((4-(4-((2,6-dioxopiperidin-3-yl)amino)phenyl)piperazin-1-yl)methyl)cyclohexyl)carbamoyl)phenyl)amino)-5-fluoropyrimidin-4-yl)amino)benzamide] | B (B is 0.3 to 0.5) | B (B is 0.2 to 0.4) | < 50
7 | O=C1CCC(c2ccc(N3CCC(CN4CCC(NC(=O)c5ccc(Nc6ncc(F)c(Nc7ccc(C(=O)Nc8ccccc8Cl)cc7)n6)cc5)CC4)CC3)cc2)C(=O)N1 (stereo not drawn) [Compound 50, N-(2-chlorophenyl)-4-[[2-[4-[[1-[[1-[4-(2,6-dioxo-3-piperidyl)phenyl]-4-piperidyl]methyl]-4-piperidyl]carbamoyl]anilino]-5-fluoro-pyrimidin-4-yl]amino]benzamide] | B (B is 0.3 to 0.5) | A (A is <0.2) | 50 to 100
8 | O=C1CCC(c2ccc(N3CCN(CCC4CCN(NC(=O)c5ccc(Nc6ncc(F)c(Nc7ccc(C(=O)Nc8ccccc8Cl)cc7)n6)cn5)CC4)CC3)cc2)C(=O)N1 (stereo not drawn) [Compound 83, 5-[[4-[4-[(2-chlorophenyl)carbamoyl]anilino]-5-fluoro-pyrimidin-2-yl]amino]-N-[4-[2-[4-[4-(2,6-dioxo-3-piperidyl)phenyl]piperazin-1-yl]ethyl]-1-piperidyl]pyridine-2-carboxamide] | B (B is 0.3 to 0.5) | A (A is <0.2) | > 200
9 | CN(c1ccc(N2CCC(CN3CCN(C(=O)Cc4ccc(Nc5ncc(F)c(Nc6ccc(C(=O)Nc7ccccc7Cl)cc6)n5)cc4)CC3)CC2)cc1)C1CCC(=O)NC1=O (stereo not drawn) [Compound 44, N-(2-chlorophenyl)-4-((2-((4-(2-(4-((1-(4-((2,6-dioxopiperidin-3-yl)(methyl)amino)phenyl)piperidin-4-yl)methyl)piperazin-1-yl)-2-oxoethyl)phenyl)amino)-5-fluoropyrimidin-4-yl)amino)benzamide] | B (B is 0.3 to 0.5) | A (A is <0.2) | 100 to 150
10 | CCC(CN1CCN(c2ccc(C3CCC(=O)NC3=O)cc2)CC1)C1CCN(NC(=O)c2ccc(Nc3ncc(F)c(Nc4ccc(C(=O)Nc5ccccc5Cl)cc4)n3)cc2)CC1 (stereo not drawn) [Compound 72, N-(2-chlorophenyl)-4-((2-((4-((4-(1-(4-(4-(2,6-dioxopiperidin-3-yl)phenyl)piperazin-1-yl)butan-2-yl)piperidin-1-yl)carbamoyl)phenyl)amino)-5-fluoropyrimidin-4-yl)amino)benzamide] | B (B is 0.3 to 0.5) | A (A is <0.2) | < 50
11 | CN(c1cccc(N2CCC(CN3CCN(C(=O)Cc4ccc(Nc5ncc(F)c(Nc6ccc(C(=O)Nc7ccccc7Cl)cc6)n5)cc4)CC3)CC2)c1)C1CCC(=O)NC1=O (stereo not drawn) [Compound 45, N-(2-chlorophenyl)-4-((2-((4-(2-(4-((1-(3-((2,6-dioxopiperidin-3-yl)(methyl)amino)phenyl)piperidin-4-yl)methyl)piperazin-1-yl)-2-oxoethyl)phenyl)amino)-5-fluoropyrimidin-4-yl)amino)benzamide] | C (C is 0.5 to 0.7) | B (B is 0.2 to 0.4) | 50 to 100
12 | O=C1CCC(c2ccc(N3CCN(CCCC4CCN(NC(=O)c5ccc(Nc6ncc(F)c(Nc7ccc(C(=O)Nc8ccccc8Cl)cc7)n6)cc5)CC4)CC3)cc2)C(=O)N1 (stereo not drawn) [Compound 52, N-(2-chlorophenyl)-4-((2-((4-((4-(3-(4-(4-(2,6-dioxopiperidin-3-yl)phenyl)piperazin-1-yl)propyl)piperidin-1-yl)carbamoyl)phenyl)amino)-5-fluoropyrimidin-4-yl)amino)benzamide] | A (A is <0.3) | A (A is <0.2) | < 50
